Like-named read-outs stand apart in the source and are kept apart here.
Assays:
PAK1 = PAK1 (Homo sapiens, UniProt Q13153); assay: PAK1 IC50 determination, Z'-LYTE kinase assay; type: biochemical; details: [ATP]=10×Km; [PAK1]=1 ng; read-out: IC50 against PAK1
Description: Protocol for determining IC50 Values for test compounds at [ATP]=10×Km; [PAK1]=1 ng
Add 2 ml 5× Kinase Buffer to 8 ml water to prepare […] of Kinase Buffer A.
• Thaw the concentrated stock of test compound at room temperature. • 2.1. Add 10 μl of 100% DMSO to row A, columns 2-11 (wells A2-A11) in a 96-well assay plate (non-binding surface). To well A1, add 15 μl of the concentrated stock of test compound. This will be the highest concentration of test compound in a 10-point titration curve. Use a concentration that is 100× the final desired 1× concentration per 10 μl kinase reaction. For example, if the final 1× concentration of 100 μM is desired for the highest concentration of test compound in the 10 point titration curve, add 15 μl of 10 mM test compound to well A1. • 2.2. Titrate the 100× test compound three-fold across the assay plate from well A1 to well A10. To perform this threefold titration, transfer 5 μl of the 100× test compound from well A1 to the 10 μl of 100% DMSO in well A2. Repeat for wells A2-A10. Discard the final 5 μl from well A10 so that all wells contain 10 μl. […] This completes the 10-point three-fold titration of test compound at 100× concentration. • 2.3. Transfer a 2 μl aliquot of the 100× test compound titration series from each well in row A of the 96-well assay plate (wells A1-A12) to row B (wells B1-B12). Add 48 μl of complete kinase reaction buffer to each well in row B to dilute the 100× three-fold titration series of test compound to 4× (the DMSO will also be diluted, to 4%). • 2.4. Transfer 2.5 μl of the 4× concentrated three-fold titration series of test compound from row B of the 96-well assay plates to quadruplicate wells of a 384-well assay plate. Each well in columns 21-24 should contain 2.5 μl of 4% DMSO (no compound) in complete kinase reaction buffer. This 2.5 μl addition of 4× test compound in 4% DMSO produces a 1× concentration of test compound in 1% DMSO for a 10 μl kinase reaction. • 2.5. Dispense 2.5 μl of complete kinase reaction buffer to each well in columns 23-24 of the 384-well assay plate.
• 1. Prepare 500 μl of 4 μM Z′-LYTE® Phospho-peptide by adding 2 μl of 1 mM Z′-LYTE® Phospho-peptide to 498 μl of complete kinase reaction buffer. • 2. Dispense 5 μl of the 4 μM Z′-LYTE® Phospho-peptide (2×) to each well in column 24 of the 384-well assay plate. • 3. Prepare 1000 μl of 4 μM Z′-LYTE® Peptide Substrate (2×)/2× kinase solution in complete kinase reaction buffer. If necessary, prepare an intermediate dilution of the kinase in complete kinase reaction buffer before preparing the Z′-LYTE™ Peptide Substrate (2×)/2× kinase solution. Use the appropriate 2× kinase concentration in the assay to phosphorylate 20-50% of the 0% inhibition controls at the ATP concentration desired. • 4. […]

[1] = test system: other PAK family members (PAK2, PAK3, PAK4, PAK6, PAK7); assay: Inhibitory activity against other PAK family members; type: biochemical; details: in words
Description: A cell-based small molecule screening with 50,024 compounds was performed based on AML cell lines that grow in a PAK1-dependent manner, which has been previously described (Pandolfi et al., 2015). This was followed by single point PAK1 enzymatic activity screening against 360 compounds. Forty-six identified compounds that scored positive in this assay were subjected to enzymatic activity assays against other PAK family kinases including PAK2, PAK3, PAK4, PAK6, and PAK7. […] Those compounds were studied in further detail and key biochemical, pharmacokinetic, and structure-activity characteristics were determined.

larger kinase panel = assay: Selectivity against a larger kinase panel; type: binding; details: in words
[2] = Microsomal stability, human (HLM); type: in vitro ADME; details: human microsomes; for CLh: in mL/min/kg (unit assumed); for microsomal CLint / half-life: liver microsomes; for half-life: read-out: t½
[3] = Microsomal stability, rat (RLM); type: in vitro ADME; details: rat microsomes; for microsomal CLint / half-life: liver microsomes; for half-life: read-out: t½; for CLh: in mL/min/kg (unit assumed)
[4] = Microsomal stability, mouse (MLM); type: in vitro ADME; details: for microsomal CLint / half-life: liver microsomes; for half-life: read-out: t½; for ER / CLh: mouse microsomes; for CLh: in mL/min/kg (unit assumed)
[5] = Pharmacokinetic (PK) assessment in rats; type: in vivo; details: for MRT last: read-out: MRTlast; for half-life: read-out: T ½ (converted)
[6] = rat, plasma, PO, 10 mg/kg, mean
[7] = rat, plasma, iv, 2 mg/kg, IV, 2 mg/kg, mean, read-out: AUCINF
[8] = rat, plasma, iv, 2 mg/kg, IV, 2 mg/kg, mean, read-out: AUClast
[9] = rat, plasma, iv, 2 mg/kg, IV, 2 mg/kg, mean, read-out: Vss
[10] = rat, plasma, iv, 2 mg/kg, IV, 2 mg/kg, mean, read-out: Vz
[11] = rat, plasma, po, 10 mg/kg, PO, 10 mg/kg, mean, read-out: AUClast

Sequence of PAK1 (Q13153 whole entry): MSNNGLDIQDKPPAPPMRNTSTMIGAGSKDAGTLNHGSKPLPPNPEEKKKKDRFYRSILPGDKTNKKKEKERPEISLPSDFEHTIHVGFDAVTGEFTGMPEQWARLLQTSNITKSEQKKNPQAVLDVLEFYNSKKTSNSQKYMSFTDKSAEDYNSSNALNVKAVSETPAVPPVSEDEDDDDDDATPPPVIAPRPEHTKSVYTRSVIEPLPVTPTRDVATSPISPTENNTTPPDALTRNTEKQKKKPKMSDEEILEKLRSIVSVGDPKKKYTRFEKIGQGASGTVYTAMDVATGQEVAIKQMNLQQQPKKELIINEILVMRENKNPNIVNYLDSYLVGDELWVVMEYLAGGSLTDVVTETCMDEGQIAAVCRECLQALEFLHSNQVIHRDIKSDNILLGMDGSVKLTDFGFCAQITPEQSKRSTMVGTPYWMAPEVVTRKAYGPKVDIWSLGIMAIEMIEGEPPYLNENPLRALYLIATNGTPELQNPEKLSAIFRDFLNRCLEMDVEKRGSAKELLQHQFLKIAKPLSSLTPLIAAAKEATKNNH

Compound: CSc1ccc(-c2nc3cccc(C)n3c2Nc2ccc3c(c2)OCCO3)cc1 [Compound C273-0489]
- IC50 (PAK1): 470 nM
- inhibitory activity against any of the other PAK family members [1]: no significant inhibitory activity
- inhibition against a larger kinase panel (larger kinase panel): no significant inhibition
- ER [2]: 0.89
- CLh [2]: 19.24
- microsomal CLint [2]: 199 µL/min/mg
- half-life [2]: 0.232 h
- microsomal CLint [3]: 1830 µL/min/mg
- half-life [3]: 0.0252 h
- ER [3]: 0.98
- CLh [3]: 54.10
- microsomal CLint [4]: 664 µL/min/mg
- half-life [4]: 0.0697 h
- ER [4]: 0.97
- CLh [4]: 87.00
- K el ([5]; IV, 2 mg/kg, mean): 0.07 h⁻¹
- C0 ([5]; rat, plasma, IV, 2 mg/kg, mean): 71.7 ng/mL
- Cmax ([5]; rat, plasma, IV, 2 mg/kg, mean): 53.4 ng/mL
- MRT inf ([5]; rat, plasma, IV, 2 mg/kg, mean): 12.3 h
- Tmax ([5]; rat, plasma, IV, 2 mg/kg, mean): 0.08 h
- clearance ([5]; rat, plasma, IV, 2 mg/kg, mean): 214 mL/min/kg
- MRT last ([5]; rat, plasma, IV, 2 mg/kg, mean): 6.51 h
- half-life ([5]; rat, plasma, IV, 2 mg/kg, mean): 10.6 h
- Cmax [5, 6]: 17.4 ng/mL
- Tmax [5, 6]: 3.33 h
- MRT last [5, 6]: 3.97 h
- AUC(0-inf) [5, 7]: 156 ng·h/mL
- AUC(0-t) [5, 8]: 129 ng·h/mL
- Vd [5, 9]: 158 L/kg
- Vd [5, 10]: 197 L/kg
- AUC(0-t) [5, 11]: 92.7 ng·h/mL

Compound: CCC1CCCCN1c1cc(C)nc2nc(-c3ccc(C)cc3)nn12 (centres unmarked) [Compound D245-0091, 7-(2-Ethylpiperidin-1-yl)-5-methyl-2-(p-tolyl)-[1,2,4]triazolo[1,5-a]pyrimidine]
- IC50 (PAK1): 5000 nM
- inhibitory activity against any of the other PAK family members [1]: no significant inhibitory activity
- inhibition against a larger kinase panel (larger kinase panel): no significant inhibition
- ER [2]: 0.83
- CLh [2]: 18.11
- microsomal CLint [2]: 114 µL/min/mg
- half-life [2]: 0.405 h
- microsomal CLint [3]: 159 µL/min/mg
- half-life [3]: 0.29 h
- ER [3]: 0.84
- CLh [3]: 46.14
- microsomal CLint [4]: 243 µL/min/mg
- half-life [4]: 0.19 h
- ER [4]: 0.91
- CLh [4]: 82.27
- K el ([5]; IV, 2 mg/kg, mean): 0.42 h⁻¹
- Fabs, % (from AUCINF) ([5]; PO 10 mg/kg versus IV 2 mg/kg): 9.4%
- Fabs, % (from AUClast) ([5]; PO 10 mg/kg versus IV 2 mg/kg): 9.1%
- K el ([5]; PO, 10 mg/kg, mean): 0.37 h⁻¹
- C0 ([5]; rat, plasma, IV, 2 mg/kg, mean): 1010 ng/mL
- Cmax ([5]; rat, plasma, IV, 2 mg/kg, mean): 740 ng/mL
- MRT inf ([5]; rat, plasma, IV, 2 mg/kg, mean): 1.69 h
- Tmax ([5]; rat, plasma, IV, 2 mg/kg, mean): 0.08 h
- clearance ([5]; rat, plasma, IV, 2 mg/kg, mean): 46.8 mL/min/kg
- MRT last ([5]; rat, plasma, IV, 2 mg/kg, mean): 1.46 h
- half-life ([5]; rat, plasma, IV, 2 mg/kg, mean): 1.66 h
- CL/F [5, 6]: 525 mL/min/kg
- Cmax [5, 6]: 85.7 ng/mL
- MRT inf [5, 6]: 3.01 h
- Tmax [5, 6]: 1.17 h
- MRT last [5, 6]: 2.52 h
- half-life [5, 6]: 1.87 h
- Vd/F ([5]; rat, plasma, PO, 10 mg/kg, mean, read-out: Vz/F): 84.8 L/kg
- AUC(0-inf) [5, 7]: 714 ng·h/mL
- AUC(0-t) [5, 8]: 695 ng·h/mL
- Vd [5, 9]: 4.77 L/kg
- Vd [5, 10]: 6.74 L/kg
- AUC(0-inf) ([5]; rat, plasma, iv, 2 mg/kg, IV, dose 2 mg/kg, summary section, no unit printed there, read-out: AUCINF, IV plasma): 714 ng·h/mL
- AUC(0-t) ([5]; rat, plasma, iv, 2 mg/kg, IV, dose 2 mg/kg, summary section, no unit printed there, read-out: AUClast, IV plasma): 695 ng·h/mL
- AUC(0-inf) ([5]; rat, plasma, po, 10 mg/kg, PO, 10 mg/kg, mean, read-out: AUCINF): 334 ng·h/mL
- AUC(0-t) [5, 11]: 315 ng·h/mL
- AUC(0-inf) ([5]; rat, plasma, po, 10 mg/kg, PO, dose 10 mg/kg, summary section, no unit printed there, read-out: AUCINF, PO plasma): 334 ng·h/mL
- AUC(0-t) ([5]; rat, plasma, po, 10 mg/kg, PO, dose 10 mg/kg, summary section, no unit printed there, read-out: AUClast, PO plasma): 315 ng·h/mL

Reference: patent publication US11065251B2, “PAK1 inhibitors and uses thereof” (Albert Einstein College of Medicine, priority 2016, dated 2021)
